Results from ChEMBL document CHEMBL4138287, “Total Synthesis of the Flavonoid Natural Product Houttuynoid A” (J Nat Prod, 2018).

System: Herpesviridae sp.
Experiment: Antiviral activity against Herpes simplex virus infected in African green monkey Vero cells measured at 24 hrs post infection at 2 mins interval for 25 times
Assay type: functional, organism-based

SMILES | IC50 [µM]
CCCCCCCCCc1cc2c(-c3oc4cc(O)cc(O)c4c(=O)c3O[C@@H]3O[C@H](CO)[C@H](O)[C@H](O)[C@H]3O)ccc(O)c2o1 | 57.7
CCCCCCCCCc1oc2c(O)ccc(-c3oc4cc(O)cc(O)c4c(=O)c3O[C@@H]3O[C@H](CO)[C@H](O)[C@H](O)[C@H]3O)c2c1C=O | 23.5
